Measured values taken from PMC5891061, “Electrophysiological mechanisms of vandetanib-induced cardiotoxicity: Comparison of action potentials in rabbit Purkinje fibers and pluripotent stem cell-derived cardiomyocytes” (PLoS ONE, 2018).

Assays:
IhERG in hiPSC-CMs = target: T1, IhERG in hiPSC-CMs (Homo sapiens, UniProt Q12809); test: IhERG current in hiPSC-CMs (voltage clamp); type: cell-based; set-up: unit not given here
T1 construct: host or cells: hiPSC-CMs (iCell Cardiomyocytes)
Description: The hiPSC-CMs from human fibroblast cell lines (iCell Cardiomyocytes; Cellular Dynamics International, Madison, WI, USA) were purchased and cultured for single-cell electrophysiological recordings. Frozen vials of hiPSC-CMs were thawed in a water bath maintained at 37°C and mixed with ice-cold plating medium (iCell Cardiomyocyte Plating Medium, glucose-free). The cells were transferred to four-well culture plates containing 0.1% gelatin-coated glass coverslips and then maintained in a culture incubator at 37°C in an atmosphere of 93% air and 7% CO2. After 2 days of culture, the plating medium was replaced with culture medium (iCell Cardiomyocyte Maintenance Medium, glucose-free), which was then changed every 2 days. The hiPSC-CMs were cultured for 4 weeks and used at 7 to 28 days post-thaw for electrophysiological analysis. […] The internal solution contained (in mM) 120 K-Asp, 20 KCl, 5 NaCl, 2 CaCl2, 10 HEPES, 5 EGTA, and 5 Mg-ATP (pH 7.25). We recorded typical APs in hiPSC-CMs in the current-clamp mode. The spontaneous beating activity or paced firing of single hiPSC-CMs were recorded, and only hiPSC-CMs that could beat stably were included in the analysis. Following stabilization of the AP waveforms, the average of six recorded APs for each test concentration was analyzed.
pCLAMP (Axon Instruments, Foster City, CA, USA), Origin 8 (OriginLab Corp, Northampton, MA, USA), and Excel (Microsoft, Redmond, WA, USA) were used for data acquisition and analysis. The concentration–response relationships for drug-induced blockage were calculated using SigmaPlot (Systat Software, San Jose, CA, USA). […] Data are presented as the means ± SEM, and n represents the number of experimental replicates. Statistical significance was determined using the Student’s t-test and one-way ANOVA with post hoc testing using Dunnett’s method; p < 0.05 was considered to indicate statistical significance.

Y652A hERG = Y652A hERG (Homo sapiens, UniProt Q12809, Y652A); test: in vitro; conditions: HEK-293 cells transiently expressing Y652A mutant hERG
Source text: (§1) The hERG mutations were constructed by site-directed mutagenesis of WT hERG cDNA in pcDNA3.1 vector using the QuickChange Site-Directed Mutagenesis Kit (Stratagene), and the integrity of the construct was verified by DNA sequencing.

[1] = cited from earlier work
KCNQ1/KCNE1 (IKs) = target: T2, KCNQ1/KCNE1 (IKs) (Homo sapiens, UniProt P51787); test: Whole-cell patch clamp, IKs in KCNQ1/KCNE1-cotransfected HEK293 cells; type: cell-based; conditions: for IKs current: HEK293
T2 construct: expressed in transfected cells; host or cells: HEK293
Source text: For various aspects of cardiac ion channel study, human embryonic kidney (HEK293; ATCC, Manassas, VA, USA) cells were transiently transfected using lipofectAmin2000 (Gibco BRL, New York, NY, USA) according to the manufacturer’s instructions. The hERG (human ether-ago-go-related gene corresponding to IKr), KCNQ1/KCNE1 (the gene corresponding to IKs), KCNJ2 (the gene corresponding to IK1) or SCN5A (the gene corresponding to INa) cDNA was co-transfected with green fluorescence protein, the surface marker protein, to allow assessment of the transfection efficiency. For the calcium current, enzymatically isolated single rat ventricular myocytes were used. Briefly, the hearts were rapidly excised from anaesthetized Sprague–Dawley rats (250–350 g) and perfused via the aorta on a Langendorff apparatus with an oxygenated normal Tyrode (NT) solution for 5 min. To clear the blood, then perfused with Ca^2+-free normal Tyrode solution for 3 min. Next, the heart was perfused with enzyme solution containing 0.6 mg/mL collagenase (Worthington Biomedical Corp., Lakewood, NJ, USA) for 30–40 min. Finally, this enzyme-containing solution was washed out for 5 min. with a high-K^+ and low-Cl^-) Kraft-Bruhe solution. Following the isolation procedure, the left ventricle was dissected out and agitated mechanically with a fire-polished Pasteur pipette in Kraft-Bruhe solution to obtain single myocytes. The isolated myocytes were stored at 4°C until use.
The external solution for recording the IhERG, IKs and INa channel currents was NT solution. The internal solution for IhERG contained the following (in mM): 130 KCl, 5 EGTA, 10 HEPES, 1 MgCl2, 5 Mg-ATP (pH 7.25 with KOH), and for IKs in the KCNQ1/KCNE1-cotransfected HEK293 cells, 150 KCl, 5 EGTA, 10 HEPES, 2 MgCl2, 1 CaCl2 and 5 Na2-ATP (pH adjusted 7.25 with KOH). […] The calcium current was measured in naïve rat ventricular myocytes, cells were superfused with an external solution that consisted of (in mM): 137 choline-Cl, 5 CsCl, 0.5 MgCl2, 2 4-AP, 10 HEPES, 10 glucose and 1.8 CaCl2 (pH 7.4 with NaOH), whereas the intracellular solution used to fill the pipette had the following ionic solution (in mM): 20 CsCl, 100 Cs-aspartate, 10 EGTA, 10 HEPES, 20 TEA-Cl, 5 Mg-ATP (pH 7.25 with KOH). […]
pCLAMP (Axon Instruments, Foster City, CA, USA), Origin 8 (OriginLab Corp, Northampton, MA, USA), and Excel (Microsoft, Redmond, WA, USA) were used for data acquisition and analysis. The concentration–response relationships for drug-induced blockage were calculated using SigmaPlot (Systat Software, San Jose, CA, USA). […] Statistical significance was determined using the Student’s t-test and one-way ANOVA with post hoc testing using Dunnett’s method; p < 0.05 was considered to indicate statistical significance. […]

F656A hERG = F656A hERG (Homo sapiens, UniProt Q12809, F656A); conditions: 3 μM, -120 mV, high K+
Source text: as §1

## COc1cc2c(Nc3ccc(Br)cc3F)ncnc2cc1OCC1CCN(C)CC1 [Vandetanib]
IhERG in hiPSC-CMs; 0.1 μM
  IhERG current: 196.0 ± 3.2
IhERG in hiPSC-CMs; 0.3 μM
  IhERG current: 164.9 ± 9.4
IhERG in hiPSC-CMs; 1 μM
  IhERG current: 92.8 ± 11.2
IhERG in hiPSC-CMs; 3 μM
  IhERG current: 20.4 ± 4.4
Y652A hERG
  inhibition at 3 μM: 64.2 ± 2.8%
[1]; Japanese phase I trial
  Incidence of asymptomatic QTc prolongation: 61%
[1]; patients
  Patients with side effects such as diarrhea/colitis, rash, nausea, and hypertension: > 20%
[1]; phase I trial in solid tumors
  Patients who developed asymptomatic QTc prolongation: 9%
[1]; phase II trials
  Incidence of asymptomatic QT prolongation: 15%
KCNQ1/KCNE1 (IKs); 10 μM
  IKs current: 840.7 ± 180.3
KCNQ1/KCNE1 (IKs); 30 μM
  IKs current: 406.5 ± 113.7
KCNQ1/KCNE1 (IKs); 100 μM
  IKs current: 108.2 ± 8.3
KCNQ1/KCNE1 (IKs); HEK293 cells
  IC50: 28 ± 1.81 µM
F656A hERG
  F656A hERG current: -1101.9 ± 122.4
